Assay results published in ChEMBL document CHEMBL3232940, “TNF-α inhibition elicited by mansoins A and B, heterotrimeric flavonoids isolated from Mansoa hirsuta” (J Nat Prod, 2014).

Assay: Antiinflammatory activity in human THP1 cells assessed as inhibition of LPS-induced TNF-alpha production preincubated for 3 hrs followed by LPS-challenge measured after overnight incubation by sandwich ELISA
Type: functional, cell-based
Conditions: THP-1

| Compound | IC50 [µM] |
| --- | --- |
| O=C1C[C@@H](c2ccc(O)c(O[C@@H]3O[C@H](CO)[C@@H](O)[C@H](O)[C@H]3O)c2)Oc2c1c(O)c([C@@H](CCc1ccc(O)cc1)c1ccc(O)cc1O[C@@H]1O[C@H](CO)[C@@H](O)[C@H](O)[C@H]1O)c(O)c2[C@@H](CCc1ccc(O)cc1)c1ccc(O)cc1O[C@@H]1O[C@H](CO)[C@@H](O)[C@H](O)[C@H]1O | 48.1 |
| O=C1C[C@@H](c2ccc(O)c(O)c2)Oc2c1c(O)c([C@@H](CCc1ccc(O)cc1)c1ccc(O)cc1O[C@@H]1O[C@H](CO)[C@@H](O)[C@H](O)[C@H]1O)c(O)c2[C@@H](CCc1ccc(O)cc1)c1ccc(O)cc1O[C@@H]1O[C@H](CO)[C@@H](O)[C@H](O)[C@H]1O | 20 |
